The target in series [1] is T1, Solute carrier organic anion transporter family member 1B3 (Homo sapiens, UniProt Q9NPD5).
T1 sequence (Q9NPD5 whole entry): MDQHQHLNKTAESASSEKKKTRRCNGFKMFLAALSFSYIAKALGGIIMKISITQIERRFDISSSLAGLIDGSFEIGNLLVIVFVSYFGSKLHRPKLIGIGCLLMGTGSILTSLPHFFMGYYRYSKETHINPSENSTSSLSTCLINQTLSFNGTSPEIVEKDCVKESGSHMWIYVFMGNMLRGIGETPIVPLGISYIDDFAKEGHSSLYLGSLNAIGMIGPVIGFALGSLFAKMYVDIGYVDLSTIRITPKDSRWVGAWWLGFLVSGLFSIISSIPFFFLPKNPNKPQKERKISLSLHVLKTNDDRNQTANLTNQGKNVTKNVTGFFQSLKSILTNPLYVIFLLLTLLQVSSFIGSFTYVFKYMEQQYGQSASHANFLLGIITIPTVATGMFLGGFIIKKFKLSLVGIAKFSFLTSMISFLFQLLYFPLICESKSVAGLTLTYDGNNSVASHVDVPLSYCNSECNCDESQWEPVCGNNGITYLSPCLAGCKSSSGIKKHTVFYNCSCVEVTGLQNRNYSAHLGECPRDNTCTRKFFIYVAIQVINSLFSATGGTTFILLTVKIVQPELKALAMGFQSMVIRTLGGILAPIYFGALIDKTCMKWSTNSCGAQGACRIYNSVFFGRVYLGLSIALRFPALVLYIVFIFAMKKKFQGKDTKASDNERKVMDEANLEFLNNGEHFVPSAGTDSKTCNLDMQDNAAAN
Particulars: chinese hamster, cho, 10 µM.

For series [2], the target named is T2, Solute carrier organic anion transporter family member 1B1 (Homo sapiens, UniProt Q9Y6L6).
T2 sequence (Q9Y6L6 whole entry): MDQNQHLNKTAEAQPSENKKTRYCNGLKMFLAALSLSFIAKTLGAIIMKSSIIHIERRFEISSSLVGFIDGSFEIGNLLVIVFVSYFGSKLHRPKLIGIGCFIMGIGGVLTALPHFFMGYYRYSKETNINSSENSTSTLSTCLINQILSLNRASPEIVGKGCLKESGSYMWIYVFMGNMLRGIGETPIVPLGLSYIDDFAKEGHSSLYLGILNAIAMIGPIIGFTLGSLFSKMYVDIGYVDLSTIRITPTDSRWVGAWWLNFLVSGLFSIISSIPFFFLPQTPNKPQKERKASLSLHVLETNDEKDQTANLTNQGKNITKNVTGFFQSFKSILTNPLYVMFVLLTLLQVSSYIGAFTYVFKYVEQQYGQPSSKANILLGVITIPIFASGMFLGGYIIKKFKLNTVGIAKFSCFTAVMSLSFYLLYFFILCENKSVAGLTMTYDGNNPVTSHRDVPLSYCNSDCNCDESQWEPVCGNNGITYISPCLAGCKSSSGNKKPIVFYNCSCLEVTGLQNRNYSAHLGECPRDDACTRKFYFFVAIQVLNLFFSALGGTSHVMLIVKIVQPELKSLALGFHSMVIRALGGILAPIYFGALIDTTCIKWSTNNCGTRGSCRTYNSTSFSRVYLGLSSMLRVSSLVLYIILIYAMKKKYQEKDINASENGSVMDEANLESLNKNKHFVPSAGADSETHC
The note with it: chinese hamster, cho, 10 µM.

Positions of bridges follow the written chain, without caps; N, C: chain ends. Non-standard residues stand in square brackets, D forms with d. Residues, ends and D or L forms follow the SMILES beside them. *: point of attachment. Ileψ(thiazoline)Cys = CC[C@H](C)[C@H](N)C1=N[C@H](C(=O)*)CS1; dOrn = NCCC[C@@H](N)C(=O)O

For orientation: residual activity means the signal under treatment as a percentage of the control signal. For `O=C1C(O)=C([C@H]2CC[C@H](c3ccc(Cl)cc3)CC2)C(=O)c2ccccc21` [ATOVAQUONE], the residual activity in series [1] worked out at 81.94%; in series [2] it was 89.04%.
For `COC(=O)c1c(C)cc(OC(=O)c2c(C)cc(O)c(C=O)c2O)c(C)c1O` [ATRANORIN] the same measures were 109.7% and 122.9%.
On the same counts, the results for `CCNc1nc(Cl)nc(NC(C)C)n1` [ATRAZINE] are 96.21% and 133.8%.
On the same counts, the results for `CC1=CC(=O)C2=C(C)C[C@H](O)[C@@H]3[C@H](OC(=O)[C@H]3C)[C@H]12` [AUSTRICINE] are 86.81% and 102.6%.
In the case of `COc1ccc(C(=O)CC(=O)c2ccc(C(C)(C)C)cc2)cc1` [AVOBENZONE], the residual activity amounted to 103% in series [1] and 124% in series [2].
For `C#CCCCCCCCCCCCC(O)CC(O)COC(C)=O` (stereo not given) [AVOCADYNE ACETATE] the same measures were 109.9% and 144.6%.
For `C#CCCCCCCCCCCCC(O)CC(O)CO` (stereo not given) [AVOCADYNE] the same measures were 124.3% and 96.1%.
As for `C#CCCCCCCCCCCCC(=O)CC(O)COC(C)=O` (stereo not given) [AVOCADYNONE ACETATE], the residual activity in series [1] is 100.5%; in series [2], 124.8%.
Consider `C=CCCCCCCCCCCCC(O)CC(O)COC(C)=O` (stereo not given) [AVOCATIN A], for which the residual activity in series [1] came out at 99.6%; in series [2] it was 125.1%.
In the case of `Nc1ncn([C@@H]2O[C@H](CO)[C@@H](O)[C@H]2O)c(=O)n1` [AZACITIDINE], the residual activity in series [1] is on record as 96.87%; in series [2], 108.4%.
As to `C/C=C(\C)C(=O)O[C@H]1C[C@@H](OC(C)=O)[C@@]2(C(=O)OC)CO[C@H]3[C@@H](O)[C@@](C)([C@]45O[C@@]4(C)[C@@H]4C[C@H]5O[C@@H]5OC=C[C@@]54O)[C@H]4[C@]1(CO[C@]4(O)C(=O)OC)[C@@H]32` [AZADIRACHTIN A], the residual activity in series [1] was determined as 74.42%; in series [2], 51.12%.
On the same counts, the results for `O=C(CCCN1CCN(c2ccccn2)CC1)c1ccc(F)cc1` [AZAPERONE] are 108.2% and 88.32%.
On to `[N-]=[N+]=CC(=O)OC[C@H](N)C(=O)O` [AZASERINE], for which the residual activity in series [1] was 107.6%; in series [2], 100.4%.
As to `Cn1cnc([N+](=O)[O-])c1Sc1ncnc2nc[nH]c12` [AZATHIOPRINE], the residual activity in series [1] was found to be 107.3%; in series [2], 128.4%.
For the compound `O=C(O)CCCCCCCC(=O)O` [AZELAIC ACID], the residual activity was 107.2% in series [1] and 100.4% in series [2].
In the case of `CN1CCCC(n2nc(Cc3ccc(Cl)cc3)c3ccccc3c2=O)CC1.Cl` (stereo not given) [AZELASTINE HYDROCHLORIDE], the figures for the residual activity in series [1] and in series [2] were 134.9% and 43.45%, respectively.
On the same counts, the results for `CC1(C)S[C@@H]2[C@H](NC(=O)[C@H](NC(=O)N3CCNC3=O)c3ccccc3)C(=O)N2[C@H]1C(=O)[O-].[Na+]` [AZLOCILLIN SODIUM] are 85.12% and 96.91%.
On the same counts, the results for `c1ccc(/N=N/c2ccccc2)cc1` [AZOBENZENE] are 112.1% and 216.3%.
Take `CCOC(=O)OC(C)OC(=O)[C@@H]1N2C(=O)[C@@H](NC(=O)[C@H](N)c3ccccc3)[C@H]2SC1(C)C.Cl` (stereo not given in full) [BACAMPICILLIN HYDROCHLORIDE]: the residual activity came out at 80.61% in series [1] and 46.45% in series [2].
With `CC[C@H](C)[C@H](N)C1=N[C@H](C(=O)N[C@@H](CC(C)C)C(=O)N[C@H](CCC(=O)O)C(=O)N[C@H](C(=O)N[C@H]2CCCCNC(=O)[C@H](CC(N)=O)NC(=O)[C@@H](CC(=O)O)NC(=O)[C@H](Cc3cnc[nH]3)NC(=O)[C@@H](Cc3ccccc3)NC(=O)[C@H]([C@@H](C)CC)NC(=O)[C@@H](CCCN)NC2=O)[C@@H](C)CC)CS1` [BACITRACIN] ({Ileψ(thiazoline)Cys}-L[dE]IK[dOrn]I[dF]H[dD]N; lactam 4-C), the residual activity was 77.52% in series [1] and 78.2% in series [2].
With `NCC(CC(=O)O)c1ccc(Cl)cc1` (stereo not given) [BACLOFEN], the residual activity came out at 102.2% in series [1] and 80.8% in series [2].
`COc1cc(C)c(C(=O)Oc2cc(C)c(C(=O)O)c(O)c2C)c(O)c1C=O` [BAEOMYCESIC ACID]: the residual activity turned out to be 46.77% in series [1] and 23.01% in series [2].
For the compound `O=c1cc(-c2ccccc2)oc2cc(O)c(O)c(O)c12` [BAICALEIN], the residual activity worked out at 90.2% in series [1] and 91.06% in series [2].
Take `CCCCCCCCCCCCCCCCCCOCC(O)CO` (stereo not given) [BATILOL]: the figures for the residual activity in series [1] and in series [2] were 108.3% and 92.94%, respectively.
As for `COc1cc2c3cc1Oc1cc(ccc1O)CC1c4c(cc(OC)c(O)c4Oc4ccc(cc4)CC3N(C)CC2)CCN1C` (stereo not given) [BEBEERINE], the results for the residual activity in series [1] and in series [2] were 74.29% and 53.34%, respectively.
On to `CCC(=O)OCC(=O)[C@@]1(OC(=O)CC)[C@@H](C)C[C@H]2[C@@H]3CCC4=CC(=O)C=C[C@]4(C)[C@@]3(Cl)[C@@H](O)C[C@@]21C` [BECLOMETHASONE DIPROPIONATE], for which the residual activity in series [1] is recorded as 14.78%; in series [2], 41.53%.
`NC[C@H]1O[C@H](O[C@H]2[C@H](O)[C@@H](O[C@H]3O[C@H](CO)[C@@H](O)[C@H](N)[C@H]3O)[C@H](N)C[C@@H]2N)[C@H](N)[C@@H](O)[C@@H]1O.O=S(=O)(O)O` [BEKANAMYCIN SULFATE]: the residual activity in series [1] turned out to be 118.1%; in series [2], 101.9%.
For the compound `CCOC(=O)[C@H](CCc1ccccc1)N[C@H]1CCc2ccccc2N(CC(=O)O)C1=O.Cl` [BENAZEPRIL HYDROCHLORIDE], the residual activity in series [1] was found to be 84.15%; in series [2], 101.2%.
On the same counts, the results for `CNC(=O)Oc1cccc2c1OC(C)(C)O2` [BENDIOCARB] are 84.46% and 88.1%.
In the case of `CC(Cc1cccc(C(F)(F)F)c1)NCCOC(=O)c1ccccc1.Cl` (stereo not given) [BENFLUOREX HYDROCHLORIDE], the residual activity in series [1] worked out at 87.71%; in series [2], 93.54%.
On the same counts, the results for `CCCCN(CC)c1c([N+](=O)[O-])cc(C(F)(F)F)cc1[N+](=O)[O-]` [BENFLURALIN] are 100.4% and 96.31%.
For `Cl.NC(CO)C(=O)NNCc1ccc(O)c(O)c1O` (stereo not given) [BENSERAZIDE HYDROCHLORIDE] the same measures were 93.94% and 93.51%.
On the same counts, the results for `CC(C)N1C(=O)c2ccccc2NS1(=O)=O` [BENTAZON] are 96.3% and 109.9%.
Regarding `Cl.N/C(=N\C(=O)c1nc(Cl)c(N)nc1N)NCc1ccccc1` [BENZAMIL HYDROCHLORIDE], the residual activity in series [1] is on record as 105%; in series [2], 93.84%.
On the same counts, the results for `O=C1c2ccccc2-c2cccc3cccc1c23` [BENZANTHRONE] are 69.74% and 127.3%.

For the origin of these results see ChEMBL document CHEMBL3039007, “Structure-based identification of OATP1B1/3 inhibitors” (Mol Pharmacol, 2013).
